The values below come from US7041677B2, “Use of monochloroflosequinan in the treatment of sexual dysfunction” (R.T. Alamo Ventures I, LLC, priority 2002, dated 2006).

The subject of this assay is male Cynomolgus monkeys (Macaca fascicularis). The assay can be described thus: Erection monitoring after single intracavernosal dose. The assay is classed as in vivo. Details: key to Onset Score / Duration Score: 0: no response; erection but transient—less than 1 minute; 2: erection lasting at least 1 minute but less than 5 minutes; 3: erection lasting at least 5 minutes but less than 7 minutes; 4: erection lasting longer than 7 minutes. To be noted: for Erection Score: Erection Score=2D+O; for Onset of Erection: minutes post administration. How it is done:
In this example, various halogenated derivatives of flosequinan were evaluated for their ability to induce penile erections. A single intracavernosal dose (of a given halogenated derivative of flosequinan) was administered to male Cynomolgus monkeys (Macaca fascicularis). The Cynomolgus monkey was selected because it is an appropriate established non-rodent species to be used as an erectile dysfunction model. Before the application of the test substances the possible erectile effect of dimethylsulfoxide 25% (DMSO) at a dose volume of 0.15 ml was assessed. (Concentrations of test compounds of less than 10 mg/ml were administered in 25% DMSO. Concentrations of 10 mg/ml or greater were administered in 100% DMSO). An initial dose level of 0.625 mg/kg of the test substance and the derivatives were used. If an erectile effect of the initial dose level was observed 1.25 mg/kg and finally 2.5 mg/kg of each test substance was used. Between each dose level and change of test substance there was a wash out phase of three days [except on Days 1 to 4 (Monochloroflosequinan Racemate) and days 40 to 43 (Monofluoroflosequinan) of the study where there was a wash out phase of only two days between treatments]. Dose volume: A dose volume of 0.15 ml per animal was used. The test substances were prepared according to the following scheme. For each test substance 10 mg was diluted in 1 ml of DMSO. After the test substance was completely dissolved the solution was diluted stepwise 1:2 with double distilled water to the required dose level. The test substance was formulated on the day of the dosing and stored at room temperature. No stability test was required when the test substances were formulated on the day of dosing. Remaining test substances were stored at approximately -80° C. Sufficient purpose-bred naive Cynomolgus monkeys (Macaca fascicularis) were obtained from a recognized supplier in order to provide 4 healthy male animals. At the start of study the animals were in the weight range of 4 to 7 kg and approximately 4 to 6 years old. The animals were housed in a climate controlled room to provide a minimum of 10 air changes per hour. Routinely the temperature and relative humidity ranges were between 19-25° C. and 30-70% respectively. Artificial lighting was controlled automatically to give a cycle of 12 hours light and 12 hours dark. The animals were housed singly in stainless steel cages (dimensions: 600 mm×600 mm×800 mm; E. Becker & Co. GmbH, 44579 Castrop-Rauxel, Germany). Each animal was offered twice daily between 50 to 70 g of a commercial pellet diet for primates (Ssniff P10, Ssniff Spezialdiäten GmbH, Ferdinand-Gabriel-Weg 16, 59494 Soest, Germany). Every three months diet was analyzed for specific contaminants. Tap water was provided ad libtum via an automatic watering system or bottles, except during urine collection. The water was periodically analyzed for specific contaminants found to be present in the diet or water at levels that might interfere with achieving the objective of the study. Clinical Observations: In addition to the initial pharmacological effect (penile erection) monitoring, all animals were observed twice daily for signs of ill health or overt toxicity. An individual record was maintained of the clinical condition of each animal. Post-dosing observations were performed at the discretion of the Study Director. All animals were examined at the beginning and the end of the working hours. […] Body weights were recorded once before dosing. Food consumption was not recorded. For proof of erection capability the animals were checked once pre-dose with electrostimulation using a rectal probe under sedation with […]. […] The onset post drug administration and duration of erection were recorded. Table 5 (below) provides an “Erection Score” and “Erection Index” for the same selected halogenated flosequinan derivatives presented in Table 5. […]

[1] abbreviates: 10 mg/ml intracavernosal, monkey 11539M.
Where [2] appears, read: 10 mg/ml intracavernosal, monkey 11543M.
[3] abbreviates: 10 mg/ml intracavernosal, monkey 11584M.
[4] abbreviates: 10 mg/ml intracavernosal, monkey 11590M.

Take `Cn1cc([S+]([O-])C(Cl)Cl)c(=O)c2ccc(F)cc21` (stereo not shown) [dichloroflosequinan, 3-dichloromethylsulfinyl-7-fluoro-1-methyl-4-quinolone]: under setting [1], the “Duration Score” value is 0, the “Onset Score” value worked out at 0 and the “Erection Score” value turned out to be 0. For the same compound, under setting [2], the “Duration Erection” value was 1 min, the “Duration Score” value is on record as 2 (erection lasting at least 1 minute but less than 5 minutes), the “Onset Score” value was 4 (erection onset 1 minute or less (immediate)) and the “Erection Score” value is 8. Under setting [3], the “Duration Erection” value is given as 1 min, the “Duration Score” value was 2 (erection lasting at least 1 minute but less than 5 minutes), the “Onset Score” value is listed as 4 (erection onset 1 minute or less (immediate)) and the “Onset of Erection” value was “immediate <1 min”. Besides, the “Erection Score” value under setting [3] was 8. Besides, under setting [4], the “Duration Erection” value came to 7 min, the “Duration Score” value is 4 (erection lasting longer than 7 minutes), the “Onset Score” value is reported as 4 (erection onset 1 minute or less (immediate)) and the “Onset of Erection” value was “immediate <1 min”. In addition, the “Erection Score” value under setting [4] stood at 12. For the same compound, where the note is “10 mg/ml intracavernosal, Erection Score/n, n=number of animals (4 monkeys)”, the “Erection Index” value was 7.0. For the same compound, where the note is “Cynomolgus monkeys, intracavernosal, summary of Tables 4 & 5”, the inducing penile erections result is on record as “especially effective”.
